Assay results from ChEMBL document CHEMBL3045426, “Synthesis, Antiviral and Antibacterial Activities of Isatin Mannich Bases” (Med Chem Res, 2005).
≈ marks a conversion by molar mass, not a printed value.

Tested on: Vibrio cholerae
Test: Antimicrobial activity against Vibrio cholerae 01 after 18 to 20 hr by agar dilution method
Format: functional
Details: 1

Structure (SMILES) | MIC
COc1cc(Cc2cnc(/N=C3\C(=O)N(CN4CCC(C)CC4)c4ccc(Cl)cc43)nc2N)cc(OC)c1OC | 4.88 µg/mL (≈ 8.64 µM)

Tested on: Priestia megaterium
Test: Antimicrobial activity against Bacillus megaterium after 18 to 20 hr by agar dilution method
Format: functional
Details: not given

Structure (SMILES) | MIC
COc1cc(Cc2cnc(/N=C3\C(=O)N(CN4CCC(C)CC4)c4ccc(Cl)cc43)nc2N)cc(OC)c1OC | 625 µg/mL (≈ 1110 µM)

Tested on: Enterobacter
Test: Antimicrobial activity against Enterobacter after 18 to 20 hr by agar dilution method
Format: functional
Details: not given

Structure (SMILES) | MIC
COc1cc(Cc2cnc(/N=C3\C(=O)N(CN4CCC(C)CC4)c4ccc(Cl)cc43)nc2N)cc(OC)c1OC | 1250 µg/mL (≈ 2210 µM)

Tested on: Citrobacter freundii
Test: Antimicrobial activity against Citrobacter freundii after 18 to 20 hr by agar dilution method
Format: functional
Details: not given

Structure (SMILES) | MIC
COc1cc(Cc2cnc(/N=C3\C(=O)N(CN4CCC(C)CC4)c4ccc(Cl)cc43)nc2N)cc(OC)c1OC | 312 µg/mL (≈ 553 µM)

Tested on: Salmonella enteritidis
Test: Antimicrobial activity against Salmonella enterica subsp. enterica serovar Enteritidis after 18 to 20 hr by agar dilution method
Format: functional
Details: not given

Structure (SMILES) | MIC
COc1cc(Cc2cnc(/N=C3\C(=O)N(CN4CCC(C)CC4)c4ccc(Cl)cc43)nc2N)cc(OC)c1OC | 1250 µg/mL (≈ 2210 µM)

Tested on: Salmonella typhimurium
Test: Antimicrobial activity against Salmonella enterica subsp. enterica serovar Typhimurium after 18 to 20 hr by agar dilution method
Format: functional
Details: not given

Structure (SMILES) | MIC
COc1cc(Cc2cnc(/N=C3\C(=O)N(CN4CCC(C)CC4)c4ccc(Cl)cc43)nc2N)cc(OC)c1OC | 1250 µg/mL (≈ 2210 µM)

Tested on: Proteus mirabilis
Test: Antimicrobial activity against Proteus mirabilis after 18 to 20 hr by agar dilution method
Format: functional
Details: not given

Structure (SMILES) | MIC
COc1cc(Cc2cnc(/N=C3\C(=O)N(CN4CCC(C)CC4)c4ccc(Cl)cc43)nc2N)cc(OC)c1OC | 1250 µg/mL (≈ 2210 µM)

Tested on: Proteus vulgaris
Test: Antimicrobial activity against Proteus vulgaris after 18 to 20 hr by agar dilution method
Format: functional
Details: not given

Structure (SMILES) | MIC
COc1cc(Cc2cnc(/N=C3\C(=O)N(CN4CCC(C)CC4)c4ccc(Cl)cc43)nc2N)cc(OC)c1OC | 1250 µg/mL (≈ 2210 µM)

Tested on: Edwardsiella tarda
Test: Antimicrobial activity against Edwardsiella tarda after 18 to 20 hr by agar dilution method
Format: functional
Details: not given

Structure (SMILES) | MIC
COc1cc(Cc2cnc(/N=C3\C(=O)N(CN4CCC(C)CC4)c4ccc(Cl)cc43)nc2N)cc(OC)c1OC | 1250 µg/mL (≈ 2210 µM)

Tested on: Escherichia coli
Test: Antimicrobial activity against Escherichia coli NCTC 10418 after 18 to 20 hr by agar dilution method
Format: functional
Details: not given

Structure (SMILES) | MIC
COc1cc(Cc2cnc(/N=C3\C(=O)N(CN4CCC(C)CC4)c4ccc(Cl)cc43)nc2N)cc(OC)c1OC | 1250 µg/mL (≈ 2210 µM)

Tested on: Salmonella typhi
Test: Antimicrobial activity against Salmonella enterica subsp. enterica serovar Typhi after 18 to 20 hr by agar dilution method
Format: functional
Details: not given

Structure (SMILES) | MIC
COc1cc(Cc2cnc(/N=C3\C(=O)N(CN4CCC(C)CC4)c4ccc(Cl)cc43)nc2N)cc(OC)c1OC | 1250 µg/mL (≈ 2210 µM)

Tested on: Salmonella paratyphi
Test: Antimicrobial activity against Salmonella enterica subsp. enterica serovar Paratyphi A after 18 to 20 hr by agar dilution method
Format: functional
Details: not given

Structure (SMILES) | MIC
COc1cc(Cc2cnc(/N=C3\C(=O)N(CN4CCC(C)CC4)c4ccc(Cl)cc43)nc2N)cc(OC)c1OC | 312 µg/mL (≈ 553 µM)

Tested on: Vibrio parahaemolyticus
Test: Antimicrobial activity against Vibrio parahaemolyticus after 18 to 20 hr by agar dilution method
Format: functional
Details: not given

Structure (SMILES) | MIC
COc1cc(Cc2cnc(/N=C3\C(=O)N(CN4CCC(C)CC4)c4ccc(Cl)cc43)nc2N)cc(OC)c1OC | 2.44 µg/mL (≈ 4.32 µM)

Tested on: Vibrio cholerae
Test: Antimicrobial activity against Vibrio cholerae 0139 after 18 to 20 hr by agar dilution method
Format: functional
Details: 139

Structure (SMILES) | MIC
COc1cc(Cc2cnc(/N=C3\C(=O)N(CN4CCC(C)CC4)c4ccc(Cl)cc43)nc2N)cc(OC)c1OC | 1250 µg/mL (≈ 2210 µM)

Tested on: Vibrio fluvialis
Test: Antimicrobial activity against Vibrio fluvialis after 18 to 20 hr by agar dilution method
Format: functional
Details: not given

Structure (SMILES) | MIC
COc1cc(Cc2cnc(/N=C3\C(=O)N(CN4CCC(C)CC4)c4ccc(Cl)cc43)nc2N)cc(OC)c1OC | 1250 µg/mL (≈ 2210 µM)

Tested on: Vibrio mimicus
Test: Antimicrobial activity against Vibrio mimicus after 18 to 20 hr by agar dilution method
Format: functional
Details: not given

Structure (SMILES) | MIC
COc1cc(Cc2cnc(/N=C3\C(=O)N(CN4CCC(C)CC4)c4ccc(Cl)cc43)nc2N)cc(OC)c1OC | 1.22 µg/mL (≈ 2.16 µM)

Tested on: Pseudomonas aeruginosa
Test: Antimicrobial activity against Pseudomonas aeruginosa after 18 to 20 hr by agar dilution method
Format: functional
Details: not given

Structure (SMILES) | MIC
COc1cc(Cc2cnc(/N=C3\C(=O)N(CN4CCC(C)CC4)c4ccc(Cl)cc43)nc2N)cc(OC)c1OC | 1250 µg/mL (≈ 2210 µM)

Tested on: Staphylococcus aureus
Test: Antimicrobial activity against Staphylococcus aureus after 18 to 20 hr by agar dilution method
Format: functional
Details: not given

Structure (SMILES) | MIC
COc1cc(Cc2cnc(/N=C3\C(=O)N(CN4CCC(C)CC4)c4ccc(Cl)cc43)nc2N)cc(OC)c1OC | 1250 µg/mL (≈ 2210 µM)

Tested on: Morganella morganii
Test: Antimicrobial activity against Morganella morganii after 18 to 20 hr by agar dilution method
Format: functional
Details: not given

Structure (SMILES) | MIC
COc1cc(Cc2cnc(/N=C3\C(=O)N(CN4CCC(C)CC4)c4ccc(Cl)cc43)nc2N)cc(OC)c1OC | 1250 µg/mL (≈ 2210 µM)

Tested on: Shigella boydii
Test: Antimicrobial activity against Shigella boydii after 18 to 20 hr by agar dilution method
Format: functional
Details: not given

Structure (SMILES) | MIC
COc1cc(Cc2cnc(/N=C3\C(=O)N(CN4CCC(C)CC4)c4ccc(Cl)cc43)nc2N)cc(OC)c1OC | 4.88 µg/mL (≈ 8.64 µM)

Tested on: Plesiomonas
Test: Antimicrobial activity against Plesiomonas after 18 to 20 hr by agar dilution method
Format: functional
Details: not given

Structure (SMILES) | MIC
COc1cc(Cc2cnc(/N=C3\C(=O)N(CN4CCC(C)CC4)c4ccc(Cl)cc43)nc2N)cc(OC)c1OC | 39.1 µg/mL (≈ 69.1 µM)

Tested on: Shigella sonnei
Test: Antimicrobial activity against Shigella sonnei after 18 to 20 hr by agar dilution method
Format: functional
Details: not given

Structure (SMILES) | MIC
COc1cc(Cc2cnc(/N=C3\C(=O)N(CN4CCC(C)CC4)c4ccc(Cl)cc43)nc2N)cc(OC)c1OC | 1250 µg/mL (≈ 2210 µM)

Tested on: Klebsiella pneumoniae
Test: Antimicrobial activity against Klebsiella pneumoniae after 18 to 20 hr by agar dilution method
Format: functional
Details: not given

Structure (SMILES) | MIC
COc1cc(Cc2cnc(/N=C3\C(=O)N(CN4CCC(C)CC4)c4ccc(Cl)cc43)nc2N)cc(OC)c1OC | 1250 µg/mL (≈ 2210 µM)

Tested on: Klebsiella pneumoniae
Test: Antimicrobial activity against Klebsiella pneumoniae subsp. ozaenae after 18 to 20 hr by agar dilution method
Format: functional
Details: not given

Structure (SMILES) | MIC
COc1cc(Cc2cnc(/N=C3\C(=O)N(CN4CCC(C)CC4)c4ccc(Cl)cc43)nc2N)cc(OC)c1OC | 625 µg/mL (≈ 1110 µM)

Tested on: Mycobacterium tuberculosis
Test: Antimycobacterial activity against Mycobacterium tuberculosis H37Rv ATCC 27294 at 6.25 ug/ml by MABA
Format: functional
Details: not given

Structure (SMILES) | inhibition at 6.25 µg/mL
COc1cc(Cc2cnc(/N=C3\C(=O)N(CN4CCC(C)CC4)c4ccc(Cl)cc43)nc2N)cc(OC)c1OC | 15%

Tested on: not listed separately
Test: Cytotoxicity against Homo sapiens (human) HuH7 cells assessed as cell growth at 50 ug/ml after 3 days by Neutral red assay
Format: cell-based, Huh-7
Details: read-out: Activity

Structure (SMILES) | viability at 72 h, 50 ug/ml
COc1cc(Cc2cnc(/N=C3\C(=O)N(CN4CCC(C)CC4)c4ccc(Cl)cc43)nc2N)cc(OC)c1OC | 108%

Tested on: not listed separately
Test: Cytotoxicity against Homo sapiens (human) CEM cells after 5 days by MTT assay
Format: cell-based
Details: CEM cells (CCRF-CEM)

Structure (SMILES) | CC50 at 120 h
COc1cc(Cc2cnc(/N=C3\C(=O)N(CN4CCC(C)CC4)c4ccc(Cl)cc43)nc2N)cc(OC)c1OC | 46.3 µg/mL (≈ 81.9 µM)

Tested on: Human immunodeficiency virus 1
Test: Antiviral activity against Human immunodeficiency virus 1 IIIB infected CEM cells assessed as protection against viral infection after 6 days by XTT assay
Format: functional, CCRF-CEM
Design: concentration or dose not given beside the values
Details: not given

Structure (SMILES) | Activity
COc1cc(Cc2cnc(/N=C3\C(=O)N(CN4CCC(C)CC4)c4ccc(Cl)cc43)nc2N)cc(OC)c1OC | 22.07%

Tested on: Human immunodeficiency virus 1
Test: Antiviral activity against Human immunodeficiency virus 1 IIIB infected CEM cells assessed as inhibition of virus-induced cytopathicity after 6 days by XTT assay
Format: functional, organism-based
Details: CCRF-CEM, 144 h

Structure (SMILES) | EC50
COc1cc(Cc2cnc(/N=C3\C(=O)N(CN4CCC(C)CC4)c4ccc(Cl)cc43)nc2N)cc(OC)c1OC | > 46.3 µg/mL

Tested on: not listed separately
Test: Cytotoxicity against Homo sapiens (human) MT4 cells after 5 days by MTT assay
Format: cell-based
Details: not given

Structure (SMILES) | CC50 at 120 h
COc1cc(Cc2cnc(/N=C3\C(=O)N(CN4CCC(C)CC4)c4ccc(Cl)cc43)nc2N)cc(OC)c1OC | 67.4 µg/mL (≈ 119 µM)

Tested on: Human immunodeficiency virus 1
Test: Antiviral activity against Human immunodeficiency virus 1 IIIB infected MT4 cells assessed as inhibition of virus-induced cytopathicity after 5 days by MTT assay
Format: functional, organism-based
Details: MT4, 120 h

Structure (SMILES) | EC50
COc1cc(Cc2cnc(/N=C3\C(=O)N(CN4CCC(C)CC4)c4ccc(Cl)cc43)nc2N)cc(OC)c1OC | > 67.4 µg/mL

Tested on: Hepatitis C virus
Test: Antiviral activity against Hepatitis C virus BM4-5 infected in Huh7 cells assessed as inhibition of viral RNA replication by phosphor screening method
Format: functional, Hepacivirus hominis, Huh-7
Details: not given

Structure (SMILES) | inhibition (INH)
COc1cc(Cc2cnc(/N=C3\C(=O)N(CN4CCC(C)CC4)c4ccc(Cl)cc43)nc2N)cc(OC)c1OC | 81%

Tested on: Human immunodeficiency virus 1
Test: Antiviral activity against Human immunodeficiency virus 1 IIIB infected MT4 cells assessed as protection against viral infection after 5 days by MTT assay
Format: functional
Design: concentration or dose not given beside the values
Details: not given

Structure (SMILES) | Activity
COc1cc(Cc2cnc(/N=C3\C(=O)N(CN4CCC(C)CC4)c4ccc(Cl)cc43)nc2N)cc(OC)c1OC | 41.7%
